Measured values published in patent US4112105A, “Anti-inflammatory 3-(substituted-amino)-2,1-benzisothiazoles” (Sterling Drug Inc., priority 1977, dated 1978).
Counter-ions that a name gives are not always drawn.

Legend:
[1] = inhibition of carrageenin-induced foot edema test; format: in vivo; conditions: for inhibition in vivo at 324 µmol/kg: 0.324 mMole/kg; for inhibition in vivo at 80 µmol/kg: 0.08 mMole/kg; for side effects (footnote e): 4 hours post medication
Procedure: (§1) Anti-inflammatory activity was determined using (1) the inhibition of carrageenin-induced foot edema test essentially described by Van Arman et al., J. Pharmocol. Exptl. Therap. 150, 328 (1965) as a modification of the procedure of Winter et al., Proc. Soc. Exp. Biol. and Med. 111, 544 (1962) and (2) a modification of the inhibition of adjuvant-induced arthritis test described by Pearson, J. Chronic Diseases 16, 863 (1963) and Glenn et al., Am. J. Vet. Res. 26, 1180 (1965).
Representative examples of the compounds of this invention have been tested in the carrageenin edema and adjuvant arthritis tests as described hereinabove and found to have anti-inflammatory activity. Test data, given as percent inhibition at a dose expressed in millimoles (mMole/kg) are presented hereinbelow. All test compounds were administered orally.
The data for a number of examples are presented in several separate groups each representing the test results wherein anti-inflammatory activity was measured at one or more dose levels against a single set of controls.

[2] = inhibition of adjuvant-induced arthritis test; format: in vivo; conditions: for inhibition in vivo at 120 µmol/kg: 0.12 mMole/kg
Procedure: Anti-inflammatory activity was determined using (1) the inhibition of carrageenin-induced foot edema test essentially described by Van Arman et al., J. Pharmocol. Exptl. Therap. […] J. Vet.
All test compounds were administered orally.

[3] = anti-inflammatory activity (test not given); conditions: in vivo
Procedure: as §1

[4] = acute oral toxicity, standard toxicological test procedures; conditions: in vivo; for LD50 at 168 h: acute oral, read-out: 7-day LD50
Procedure: Acute oral toxicity was determined for Examples 1E and (g) employing standard toxicological test procedures.

CN1CCN(C(=S)c2ccc(Cl)cc2[N+](=O)[O-])CC1 [Example 4B, 1-(4-chloro-2-nitrothiobenzoyl)-4-methylpiperazine]
inhibition in vivo at 324 µmol/kg ([1]; po): 28% | inhibition in vivo at 324 µmol/kg ([2]; po, 0.324 mMole/kg): 0%

Clc1ccc2c(NCCN3CCCC3)snc2c1 [Example 3C, 6-chloro-3-{[2-(1-pyrrolidinyl)-ethyl]amino}-2,1-benzisothiazole]
inhibition in vivo at 30 µmol/kg ([1]; po, 0.03 mMole/kg): 15% | inhibition in vivo at 90 µmol/kg ([1]; po, 0.09 mMole/kg): 12% | inhibition in vivo at 270 µmol/kg ([1]; po, 0.27 mMole/kg): 32% | inhibition in vivo at 320 µmol/kg ([1]; po, 0.32 mMole/kg): 29% | inhibition in vivo at 640 µmol/kg ([1]; po, 0.64 mMole/kg): 52% | inhibition in vivo at 324 µmol/kg ([2]; po, 0.324 mMole/kg): 14%

CN1CCN(c2snc3cc(Cl)ccc23)CC1 [Example 4C, 6-chloro-3-(4-methyl-1-piperazinyl)-2,1-benzisothiazole]
inhibition in vivo at 324 µmol/kg ([1]; po): 41% | inhibition in vivo at 324 µmol/kg ([2]; po, 0.324 mMole/kg): 10%

CCN(CC)CCCC(C)Nc1snc2ccccc12 (stereo not drawn) [3-[4-(diethylamino)-1-methylbutylamino]-2,1-benzisothiazole]
anti-inflammatory activity (in words) [3]: useful anti-inflammatory activity

CCN(CC)CC(O)CNc1snc2cc(Cl)ccc12 (stereo not drawn) [Example 12, 6-chloro-3-{[3-(diethylamino)-2-hydroxypropyl]amino}-2,1-benzisothiazole]
inhibition in vivo at 80 µmol/kg ([1]; po): 14% | inhibition in vivo at 324 µmol/kg ([1]; po): 35% | inhibition in vivo at 324 µmol/kg ([2]; po, 0.324 mMole/kg): 16%

CN(C)CCNc1snc2cc(Cl)ccc12 [Example 5C]
inhibition in vivo at 30 µmol/kg ([1]; po, 0.03 mMole/kg): 19% | inhibition in vivo at 90 µmol/kg ([1]; po, 0.09 mMole/kg): 14% | inhibition in vivo at 270 µmol/kg ([1]; po, 0.27 mMole/kg): 29% | inhibition in vivo at 324 µmol/kg ([1]; po): 28% | inhibition in vivo at 324 µmol/kg ([2]; po, 0.324 mMole/kg): 0%

CCN(CC)Cc1cc(Nc2snc3cc(Cl)ccc23)ccc1O [Example 15, 6-chloro-3-{[3-(diethylamino)methyl-4-hydroxyphenyl]amino}-2,1-benzisothiazole]
inhibition in vivo at 320 µmol/kg ([1]; po, 0.32 mMole/kg): 30% | inhibition in vivo at 640 µmol/kg ([1]; po, 0.64 mMole/kg): 32%

CCN(CC)CCCC(C)N(C)c1snc2cc(Cl)ccc12 (stereo not drawn) [Example 2C, 6-chloro-3-{[4-(diethylamino)-1-methylbutyl]methylamino}-2,1-benzisothiazole]
inhibition in vivo at 324 µmol/kg ([1]; po): 71% | toxicity in adjuvant arthritis test ([2]; oral, 0.324 mMole/kg): Toxic | inhibition in vivo at 72 µmol/kg ([2]; po, 0.072 mMole/kg): 0%

CCN(CC)CCCC(C)Nc1snc2cc(Cl)ccc12 (stereo not drawn) [Example 1D, 6-chloro-3-[4-(diethylamino)-1-methylbutylamino]-2,1-benzisothiazole]
anti-inflammatory activity in carrageenin edema assay (in words) ([1]; in vivo): high degree of anti-inflammatory activity | Carrageenin edema % inhibition ([1]; oral, 0.03 mMole/kg): 19% | inhibition in vivo at 90 µmol/kg ([1]; po, 0.09 mMole/kg): 14% | inhibition in vivo at 270 µmol/kg ([1]; po, 0.27 mMole/kg): 29% | anti-inflammatory activity in adjuvant arthritis assay (in words) ([2]; in vivo): high degree of anti-inflammatory activity | inhibition in vivo at 120 µmol/kg ([2]; po): 65% | toxicity (in words) [4]: low toxicity

CCN(CC)CCCC(C)NC(=O)c1ccc(Cl)cc1[N+](=O)[O-] (stereo not drawn) [Example 1B, 4-chloro-N-[4-(diethylamino)-1-methylbutyl]-2-nitrobenzamide]
inhibition in vivo at 324 µmol/kg ([1]; po): 29% | inhibition in vivo at 324 µmol/kg ([2]; po, 0.324 mMole/kg): 16%

CCN(CCO)CCCC(C)Nc1snc2cc(Cl)ccc12 (stereo not drawn) [Example 11, 6-chloro-3-<{4-[N-ethyl-N-(2-hydroxyethyl)amino]-1-methylbutyl}amino>-2,1-benzisothiazole 1,5-naphthalenedisulfonate]
inhibition in vivo at 80 µmol/kg ([1]; po): 18% | inhibition in vivo at 324 µmol/kg ([1]; po): 38% | inhibition in vivo at 240 µmol/kg ([2]; po, 0.24 mMole/kg): 54% | inhibition in vivo at 320 µmol/kg ([2]; po, 0.32 mMole/kg): 67% | inhibition in vivo at 324 µmol/kg ([2]; po, 0.324 mMole/kg): 36% | inhibition in vivo at 400 µmol/kg ([2]; po, 0.40 mMole/kg): 71%

Clc1ccc2c(NCCN3CCN(c4ccccc4)CC3)snc2c1 [Example 13, 6-chloro-3-{[2-(4-phenyl-1-piperazinyl)ethyl]amino}-2,1-benzisothiazole]
inhibition in vivo at 64 µmol/kg ([1]; po, 0.064 mMole/kg): 35% | inhibition in vivo at 80 µmol/kg ([1]; po): 11% | inhibition in vivo at 324 µmol/kg ([1]; po): 16%

CN1CCN(c2snc3ccc(Cl)cc23)CC1 [Example 8, 5-chloro-3-(4-methyl-1-piperazinyl)-2,1-benzisothiazole]
inhibition in vivo at 80 µmol/kg ([1]; po): 15% | inhibition in vivo at 324 µmol/kg ([1]; po): 51% | inhibition in vivo at 324 µmol/kg ([2]; po, 0.324 mMole/kg): 0%

CCN(CC)CCCC(C)Nc1snc2ccc(Cl)cc12 (stereo not drawn) [Example 10]
side effects (footnote e) ([1]; oral, 0.32 mMole/kg): skeletal muscle relaxation, hypothermia and ptosis | side effects (footnote e) ([1]; oral, 0.64 mMole/kg): skeletal muscle relaxation, hypothermia and ptosis | inhibition in vivo at 80 µmol/kg ([1]; po): 0% | inhibition in vivo at 320 µmol/kg ([1]; po, 0.32 mMole/kg): 62% | inhibition in vivo at 324 µmol/kg ([1]; po): 15% | inhibition in vivo at 640 µmol/kg ([1]; po, 0.64 mMole/kg): 50%

CN(C)CCCNc1snc2cc(Cl)ccc12 [Example 6C, 6-chloro-3-{[3-(dimethylamino)propyl]amino}-2,1-benzisothiazole dihydrochloride]
inhibition in vivo at 30 µmol/kg ([1]; po, 0.03 mMole/kg): 0% | inhibition in vivo at 90 µmol/kg ([1]; po, 0.09 mMole/kg): 24% | inhibition in vivo at 270 µmol/kg ([1]; po, 0.27 mMole/kg): 41% | inhibition in vivo at 324 µmol/kg ([1]; po): 35% | inhibition in vivo at 324 µmol/kg ([2]; po, 0.324 mMole/kg): 0%

CN(C)CCNc1snc2ccc(Cl)cc12 [Example 9]
inhibition in vivo at 80 µmol/kg ([1]; po): 8% | inhibition in vivo at 320 µmol/kg ([1]; po, 0.32 mMole/kg): 0% | inhibition in vivo at 324 µmol/kg ([1]; po): 0% | inhibition in vivo at 640 µmol/kg ([1]; po, 0.64 mMole/kg): 23%

CCN(CC)CCCC(C)NC(=S)c1ccc(Cl)cc1[N+](=O)[O-].Cl (stereo not drawn) [Example 1C, 4-chloro-N-[4-(diethylamino)-1-methylbutyl]-2-nitrothiobenzamide hydrochloride]
inhibition in vivo at 324 µmol/kg ([1]; po): 38% | side effects (footnote b) ([2]; oral, 0.324 mMole/kg): loss of hair, yellow urine | inhibition in vivo at 324 µmol/kg ([2]; po, 0.324 mMole/kg): 60%

CN(C)CCCCNC(=S)c1ccc(Cl)cc1[N+](=O)[O-] [Example 7B, 4-chloro-N-[4-(dimethylamino)butyl]-2-nitrothiobenzamide]
side effects (footnote d) ([1]; oral, 1.11 mMole/kg): salivation | inhibition in vivo at 1110 µmol/kg ([1]; po, 1.11 mMole/kg): 63% | inhibition in vivo at 800 µmol/kg ([2]; po, 0.80 mMole/kg): 15%

CN(C)CCNC(=S)c1ccc(Cl)cc1[N+](=O)[O-] [Example 5B, 4-chloro-N-[2-(dimethylamino)ethyl]-2-nitrothiobenzamide hydrochloride]
inhibition in vivo at 324 µmol/kg ([1]; po): 43% | inhibition in vivo at 324 µmol/kg ([2]; po, 0.324 mMole/kg): 2%

CCN(CC)CCCC(C)Nc1snc2ccccc12 (stereo not drawn) [(g), 3-[4-(diethylamino)-1-methylbutylamino]-2,1-benzisothiazole diphosphate, reference compound]
inhibition in vivo at 20 µmol/kg ([1]; po, 0.02 mMole/kg): 0% | inhibition in vivo at 30 µmol/kg ([2]; po, 0.03 mMole/kg): 0% | inhibition in vivo at 60 µmol/kg ([2]; po, 0.06 mMole/kg): 1% | inhibition in vivo at 120 µmol/kg ([2]; po): 4% | inhibition in vivo at 240 µmol/kg ([2]; po, 0.24 mMole/kg): 0% | LD50 at 168 h [4]: 1730 mg/kg

CN(C)CCCNC(=S)c1ccc(Cl)cc1[N+](=O)[O-] [Example 6B, 4-chloro-N-[3-(dimethylamino)propyl]-2-nitrothiobenzamide hydrochloride]
inhibition in vivo at 324 µmol/kg ([1]; po): 39% | inhibition in vivo at 324 µmol/kg ([2]; po, 0.324 mMole/kg): 8%

CCN(CC)Cc1cc(Nc2snc3ccccc23)ccc1O [Example 16, 3-{[3-(diethylamino)methyl-4-hydroxyphenyl]amino}-2,1-benzisothiazole]
inhibition in vivo at 80 µmol/kg ([1]; po): 2% | inhibition in vivo at 324 µmol/kg ([1]; po): 55% | inhibition in vivo at 324 µmol/kg ([2]; po, 0.324 mMole/kg): 18%

CCN(CC)Cc1cc(Nc2snc3ccc(Cl)cc23)ccc1O [Example 14, 5-chloro-3-{[3-(diethylamino)methyl-4-hydroxyphenyl]amino}-2,1-benzisothiazole]
inhibition in vivo at 80 µmol/kg ([1]; po): 22% | inhibition in vivo at 324 µmol/kg ([1]; po): 72% | inhibition in vivo at 80 µmol/kg ([2]; po, 0.08 mMole/kg): 0%

CN(C)CCCCNc1snc2cc(Cl)ccc12 [Example 7C, 6-chloro-3-{[4-(dimethylamino)butyl]amino}-2,1-benzisothiazole]
inhibition in vivo at 30 µmol/kg ([1]; po, 0.03 mMole/kg): 0% | inhibition in vivo at 90 µmol/kg ([1]; po, 0.09 mMole/kg): 9% | inhibition in vivo at 270 µmol/kg ([1]; po, 0.27 mMole/kg): 32% | inhibition in vivo at 324 µmol/kg ([2]; po, 0.324 mMole/kg): 25%

CCN(CC)CCCC(C)Nc1snc2cc(Cl)ccc12 (stereo not drawn) [Example 1E, 6-chloro-3-[4-(diethylamino)-1-methylbutylamino]-2,1-benzisothiazole diphosphate]
Carrageenin edema % inhibition ([1]; oral, 0.03 mMole/kg): 4% | Carrageenin edema % inhibition ([1]; oral, 0.09 mMole/kg): 25% | Carrageenin edema % inhibition ([1]; oral, 0.27 mMole/kg): 39% | side effects (footnote c) ([1]; oral, 0.64 mMole/kg): hypothermia | inhibition in vivo at 640 µmol/kg ([1]; po, 0.64 mMole/kg): 60% | toxicity in adjuvant arthritis test ([2]; oral, 0.24 mMole/kg): toxic | LD50 at 168 h [4]: 1430 mg/kg
